Reference: US20110098219A1, “System for Curing Hepatic Cancer with Leptin” (KAOHSIUNG MEDICAL UNIVERSITY, priority 2009, published 2011)

Assays:
[1] = system: liver cancer cells (hepatocellular carcinoma cell line); assay: XTT assay, growth of liver cancer cells; type: cell-based
Description: Please refer to FIG. 2, which is a view showing leptin's effect on growth of liver cancer cells. As shown in the figure, for acquiring effect of leptin on liver cancer cells, the preferred embodiment uses leptin having different doses, where the high-dose leptin has 100 nano-grams (ng) and the low-dose leptin has 10 ng. The 10 ng leptin is conformed to the physiological concentration of normal human body for observing effect of leptin on the cells. In the other hand, the 100 ng leptin is used to show whether a higher levels of leptin obtains a higher effect on the cells.
Please refer to FIG. 3, which is a view showing MPA's effect on growth of liver cancer cells. As shown in the figure, the preferred embodiment applies MPA having different doses to liver cancer cells.
Please refer to FIG. 4, which is a view showing effect of MPA+leptin on growth of liver cancer cells. As shown in the figure, the preferred embodiment applies MPA combined with leptin to liver cancer cells, where MPA has different doses and leptin has different doses.
Please refer to FIG. 9, which is a view showing reduced effect of MPA+leptin by suppressing leptin receptor expression. As shown in the figure, a 20 nano-moles (nM) of leptin receptor, siRNA, is transferred to cells to be cultured a day and is cultured in a serum-free medium for the next day. Then, the cells are processed with MPA+leptin for 24 hours to be analyzed through XTT assay. […] Thus, it is confirmed that leptin enhances MPA's suppression on the cells through the leptin receptor.
Please refer to FIG. 10A and FIG. 10B, which are views showing apoptosis of cells on increasing expression of leptin receptor and expression of progesterone receptor respectively. As shown in the figures, the preferred embodiment makes ob-Rb plasmid transfected to cells to be cultured a day and is cultured in a serum-free medium for the next day. Then, the cells are processed with MPA+leptin for 24 hours to be analyzed through XTT assay. […] Besides, the long-form Ob-R enhances expression of the progesterone receptor. Again, the preferred embodiment makes PgR plasmid transfected to cells to be cultured a day and is cultured in a serum-free medium for the next day. Then, the cells are processed with MPA+leptin for 24 hours to be analyzed through XTT assay.
Please refer to FIG. 15A to FIG. 16B, which are views showing cells containing very much leptin within; suppressed growth of the cells by using MPA; and STAT3- and MAPK-signal paths of the cells after MPA is applied. As shown in the figures, while leptin is added from outside in state 13 to suppress liver cancer cells with MPA+leptin, the preferred embodiment here transfers expression plasmid of leptin (pcLeptin) to liver cancer cells to be cultured for a day; and a serum-free medium is used for the next day. Then, after the cells are processed with 10^−4M MPA for 24 hours, cell growth is analyzed through XTT assay. In FIG. 15A, leptin gene is transferred to cells for a short time for obtaining very much leptin within the cells by themselves. After applying MPA to the cells for 24 hours, it is confirmed that MPA's suppression on liver cancer cells is enhanced by a lot of leptin self-generated within the cells. Moreover, after obtaining a lot of leptin, medium is collected for immunoprecipitation and further western blotting. […] Then, after the cells are processed with 10^−4 M MPA for 24 hours, JAK/STAT-related proteins are analyzed through western blotting.

[2] = system: cleaved caspase 3, cleaved caspase 7 and cleaved PARP; assay: Western blotting of apoptosis-related proteins; type: cell-based; conditions: 24 hours
Description: Please refer to FIG. 7, which is a view showing effect of MPA+leptin on related proteins for apoptosis. As shown in the figure, through analysis on liver cancer cells after applied with MPA+leptin for 24 hours, observation is done with a focus on changes of their related proteins for apoptosis. When different doses of MPA are combined with different doses of leptin for treatment for 24 hours, cellular proteins of anti-cleaved caspase 3, anti-cleaved caspase 7 and anti-cleaved Poly-ADP-ribose-polymerase (PARP) are processed with western blotting.

JAK/STAT path = assay: Western blotting of JAK/STAT path proteins in liver cancer cells; type: cell-based; conditions: 24 hours
Description: Please refer to FIG. 11, which is a view showing expression of JAK/STAT path after applied with a drug. As shown in the figure, the preferred embodiment analyzes related proteins of liver cancer cells through western blotting after applied with MPA+leptin for 24 hours.
Please refer to FIG. 13A and FIG. 13A, which are views showing expressions of proteins of JAK/STAT path and proteins of MAPK path after applied with a drug for a short time. As shown in the figures, the preferred embodiment processes liver cancer cells with high-dose leptin, high-dose MPA and high-dose leptin combined with high-dose MPA for 30 minutes. Then, related JAK/STAT proteins are collected for analyzing their expressions through western blotting.
Please refer to FIG. 14, which is a view showing reduced p-STAT3 degradation by suppressing the ERK1/2 activation and the PIAS3 expression. […] The preferred embodiment uses a 10^−6M p-ERK1/2 inhibitor (U0126) for 4 hours before a drug is applied; then, liver cancer cells are applied with the drug of MPA+leptin for 3 hours to collect cellular proteins for analyzing expression of related proteins through western blotting. […] As a conclusion, MPA activates ERK1/2 to indirectly induce PIAS3 expression for suppressing p-STAT3 (Tyr705) for cell apoptosis, where leptin enhances activation of ERK1/2 with MPA for increasing cell apoptosis.
Please refer to FIG. 15A to FIG. 16B, which are views showing cells containing very much leptin within; suppressed growth of the cells by using MPA; and STAT3- and MAPK-signal paths of the cells after MPA is applied. […] Then, after the cells are processed with 10^−4M MPA for 24 hours, cell growth is analyzed through XTT assay. […] Then, after the cells are processed with 10^−4 M MPA for 24 hours, JAK/STAT-related proteins are analyzed through western blotting.

[3] = system: epithelial cell line of normal liver (THLE-3); assay: XTT assay, survival of normal liver epithelial cell line; type: cell-based; conditions: THLE-3, FIG. 17A
Description: Please refer to FIG. 17A to FIG. 18B, which are views showing epithelial cell line of normal liver treated with MPA+leptin for 24 hours and 48 hours respectively; and views showing STAT3- and MAPK-related signal paths after treating cell line of normal liver with MPA+leptin. As shown in the figures, after epithelial cell line of normal liver (THLE-3) is applied with MPA+leptin for […], MPA+leptin's effect on cell growth (i.e. survival rate) is analyzed through XTT assay. […] Besides, in FIG. 18A and FIG. 18B, protein expressions for STAT- and MAPK-related signal paths are analyzed.

liver cancer patients = conditions: prior researches, FIG. 19B; P value 0.171; cited from earlier work

With `CC(=O)O[C@]1(C(C)=O)CC[C@H]2[C@@H]3C[C@H](C)C4=CC(=O)CC[C@]4(C)[C@H]3CC[C@@]21C` [MPA, medroxyprogesterone acetate] the “MPA's suppression on liver cancer cells” value ([1]; cells transfected with pcLeptin, 10^-4 M MPA, 24 hours) was “enhanced”, the “suppressive effect on liver cancer cells” value ([1]; high-dose MPA 10^-4 M, 24 hours) was “obvious suppressive effect” and the “suppressive effect on liver cancer cells” value ([1]; high-dose MPA 10^-4 M, 48 hours) was “the effect is enhanced”. For the same molecule, the “suppressive effect on liver cancer cells” value ([1]; low-dose MPA 10^-6 M, 24 hours or 48 hours) was “does not have obvious suppressive effect”, the “activation of cleaved caspase 3/7 and cleaved PARP” value [2] was “obviously activated” and the “p-ob-R, ob-R and PgR expression” value (JAK/STAT path) was “suppresses”. The “activation of STAT3 compared with cells without much leptin” value (JAK/STAT path; pcLeptin-transfected cells, 10^-4 M MPA) was “more obviously suppressed”, the “effect on survival rate of, and poisoning of, normal liver epithelial cells” value [3] was “no obvious effect” and the “association of patient's survival rate with MPA treatment after surgery” value (liver cancer patients) was “did not find significant association”.
